{"source": "paper PMC8333062", "about": "“Chemical tools for epichaperome-mediated interactome dysfunctions of the central nervous system” (Nature Communications, 2021)", "key": {"[1]": {"test_system": "intracranial MDA-MB-468 tumors", "assay": "PET of intracranial tumors", "type": "in vivo, mouse", "design": "radioactivity, Blood / radioactivity, Brain, normal / radioactivity, Tumor - intracranial: unit: %ID/g (percent injected dose per gram)", "conditions": "for radioactivity, Blood / radioactivity, Brain, normal / radioactivity, Tumor - intracranial: mean n=5", "description": "We next investigated if the CNS-directed epichaperome probes detect epichaperome positivity and engage the target in brain tumors. MDA-MB-468 is a triple-negative breast cancer cell line, an aggressive breast cancer subtype with high propensity of metastasizing to the brain. We therefore initiated our studies with intracranial MDA-MB-468 tumors. We imaged the real-time whole-body distribution of [^124I]-labeled PU-HZ151 ([^124I]-PU-HZ151) between 1 h and 72 h to observe that PU-HZ151 was evenly distributed throughout the body with brain exposure equaling that of other tissues and non-metabolizing organs (see PET image at 1 h, Fig. 4a). A rapid clearance from HSP90 (present throughout the brain) but not epichaperome (present only in the tumor), provided unambiguous visualization and quantitation of epichaperome positivity through PET imaging. […] We also confirmed target positivity, and specific target and probe co-localization, through radiography and associated hematoxylin and eosin staining of brain tissue (Fig. 4c–e).\n(§1) Orthotopic GBM xenografts in mice were established by injection of 5 × 10^5 cells in 2 μL PBS. For PET analyses, GSCs were injected into the striatum. Boreholes were made using a small hand drill. Mice were imaged with MRI (typically ~ 2–3 weeks after injection), and – if tumors were visible on MRI – they were imaged by micro-PET using the [^124I]-radiolabeled PU-HZ151. When mice started showing symptoms of progressing GBM, they received a microdose of [^124I]-PU-HZ151 and serial PET scans were performed at 20 mins, 6, 24, 48, 72, and 96 h post tracer administration using a dedicated small-animal PET scanner (Focus 120 microPET; Siemens Medical Solutions, USA, formerly Concorde Microsystems, Knoxville, TN). Mice were maintained under 2% isoflurane (Baxter Healthcare, Deerfield, IL) anesthesia in oxygen at 2 L min^−1 during the entire scanning period. To reduce the thyroid uptake of free iodide arising from metabolism of tracer, mice received 0.01% potassium iodide solution in their drinking water starting 48 h prior to tracer administration. For PET imaging, each mouse was administered [^124I]-PU-HZ151 (15 µCi g^−1, 3 µCi µL^−1 in saline, Hospira, 0.9% sodium chloride in water) via the tail vein or ip. Approximately 5 min prior to PET acquisition, mice were anesthetized by inhalation of a mixture of isoflurane (Baxter Healthcare, Deerfield, IL, USA; 2% isoflurane, 2 L min^−1 medical air) and positioned on the scanner bed. Anesthesia was maintained using a 1% isoflurane-O2 mixture. PET data for each mouse was recorded using static scans of 15 min and acquired at the indicated times post injection. Quantification and %ID g^−1 values were calculated by manually drawing regions of interests in three different frames and determining the average values using ASI Pro VM™ MicroPET Analysis software (Siemens Medical Solutions, Knoxville, TX)."}, "[2]": {"test_system": "lung carcinoma", "assay": "PET in a lung cancer patient", "type": "in vivo, human"}, "[3]": {"assay": "Adverse events in human patients (NCT03371420)", "type": "in vivo", "conditions": "single microdose iv"}, "[4]": {"test_system": "GBM#8", "assay": "PET of intracranial tumors", "type": "in vivo, mouse", "conditions": "microdose iv", "description": "(§2) To test if our probes can detect and differentiate in vivo the epichaperome-dependent tumors from those that are not, we next performed intracranial xenotransplantation of GSCs from epichaperome-high (GSC#8), -medium (GSC#7; GSC#19) and -negative (GSC#5) specimens. For comparison we used intracranially xenotransplanted MDA-MB-468 tumors (Fig. 7a).\nas §1"}, "[5]": {"test_system": "GBM#19", "assay": "PET of intracranial tumors", "type": "in vivo, mouse", "conditions": "microdose iv", "description": "as §2, §1"}, "[6]": {"test_system": "GBM#5", "assay": "PET of intracranial tumors", "type": "in vivo, mouse", "conditions": "microdose iv", "description": "as §2, §1"}, "[7]": {"test_system": "GBM#7", "assay": "PET of intracranial tumors", "type": "in vivo, mouse", "conditions": "microdose iv", "description": "as §2, §1"}, "[8]": {"test_system": "intracranial MDA-MB-468 tumors", "assay": "PET of intracranial tumors", "type": "in vivo, mouse", "design": "unit: %ID/g (percent injected dose per gram)", "conditions": "96 h, mean n=5"}, "[9]": {"assay": "Plasma pharmacokinetics in human patients", "type": "in vivo", "conditions": "order Patient#1, #2, #3, Mean", "quoted_text": "For the PET study, two intravenous catheters (heparin-locked) were placed in the subject for radiopharmaceutical administration and for blood sampling. […] For [^124I]-PU-HZ151 injection and blood sampling, separate peripheral intravenous lines were placed. […] For quantification of radioprobe clearance and metabolism, plasma samples were radioassayed by well counter and radioHPLC using standard techniques. […] Well counting obtained a minimum of 10,000 counts per specimen correcting for background activity and radioactive decay from time of tracer injection. An I-124 standard was assayed on the well counter to obtain a calibration factor for converting sample scintillation count rates (in cpm) to millicurie (mCi) of activity. […] This value was multiplied by the patient body weight (g) to convert to standard uptake values (SUV) for comparison with tissue SUV values measured by PET, also calculated as the ID per mL tissue volume, normalized to patient body weight (g). Blood and plasma concentration data were separately plotted versus time."}, "[10]": {"assay": "PET biodistribution in human patients", "type": "in vivo", "conditions": "human, in vivo", "excerpt": "To evaluate the brain permeability of PU-HZ151 into the human brain, we produced the [^124I]-labeled derivative and performed serial PET imaging studies of human patients (n = 3; NCT03371420), and derived time-activity (i.e. standard uptake values (SUV) versus time post-administration) curves for the brain and various other tissues (Fig. 2b). PET data obtained for [^124I]-labeled PU-H71 (NCT01269593 and ref. [39]) were used for comparison. […] The AUC values recorded for [^124I]-PU-HZ151 in the human brain post-single injection are at par with what was measured in the human muscle and lung, supportive of uptake of PU-HZ151 into the human brain (Fig. 2b). Magnetic resonance imaging (MRI), by offering structural and soft tissue resolution, confirmed the presence of PU-HZ151 in the brain tissue (Fig. 2d). […] The secondary outcome of the trial was to measure adverse events following administration of the probe. Safety of [^124I]-PU-HZ151 in human subjects was assessed by evaluation of the incidence, nature, and severity of adverse events and serious adverse events (Supplementary Note 2).\n[^124I]-PU-HZ151 and [^124I]-PU-H71 were synthesized in-house by the institutional cyclotron core facility at high specific activity. Analyses of the epichaperome by positron emission tomography (PET-CT) were performed as previously reported. In brief, research PET-CT was performed using an integrated PET-CT scanner (Discovery DSTE, GE Healthcare). CT scans for attenuation correction and anatomic coregistration were performed before tracer injection. Patients received 5 mCi of [^124I]-PU-HZ151 or [^124I]-PU-H71 by peripheral vein over 2 min. PET data were reconstructed using a standard ordered subset expected maximization iterative algorithm. Emission data were corrected for scatter, attenuation, and decay. PET scans were performed 0.5, 3, and 24 h after tracer administration. Numbers in the scale bar indicate upper and lower standardized uptake value (SUV) thresholds that define pixel intensity on PET images. SUV is a pixel value, derived from PET measurements of in vivo radioactivity, quantified as the fraction of the radioactive dose injected found in a cubic centimeter of measured tissue multiplied (ie, normalized) by patient body weight (grams). Maximum Intensity Projection (MIP) 3D images were constructed from the voxels with maximum intensity that fell in the way of parallel rays traced from the viewpoint to the plane of projection. At each pixel the highest data value encountered along the corresponding viewing ray was determined. MRI scans were obtained as part of routine clinical care using hardware and standard data acquisition and processing methods. MRI was obtained using a 1.5T magnet (Signa HDxt, GE Healthcare, Milwaukee, WI). […] Gadopentetate dimeglumine (Magnevist, HealthCare Pharmaceuticals Inc.) was injected though a peripheral angiocatheter at a standard dose (0.2 mL kg^−1 body weight, 40 mL, 2 cc s^−1). For precise localization of tracer uptake to specific neuroanatomical structures, PET brain images were fused to MRI brain images using the Integrated Registration application of the AW Suite software package (GE Healthcare, Milwaukee, Wisconsin, USA)."}}, "note": "Where “and” joins values, the source holds several entries; their conditions need not be identical. Equal values may be shown once.", "data": [{"smiles": "CC(C)(C)CNCCn1c(Sc2cc3c(cc2[124I])OCO3)nc2c(N)ncnc21", "note": "[[124I]-PU-HZ151]", "values": [{"measurement": "radioactivity, Blood", "setting": "[1]; 1 h", "result": 1.8445}, {"measurement": "radioactivity, Brain, normal", "setting": "[1]; 1 h", "result": 0.4287}, {"measurement": "radioactivity, Tumor - intracranial", "setting": "[1]; 1 h", "result": 2.4287}, {"measurement": "radioactivity, Blood", "setting": "[1]; 2 h", "result": 0.7280}, {"measurement": "radioactivity, Brain, normal", "setting": "[1]; 2 h", "result": 0.0550}, {"measurement": "radioactivity, Blood", "setting": "[1]; 6 h", "result": 0.2100}, {"measurement": "radioactivity, Brain, normal", "setting": "[1]; 6 h", "result": 0.1400}, {"measurement": "radioactivity, Tumor - intracranial", "setting": "[1]; 6 h", "result": 0.6541}, {"measurement": "radioactivity, Blood", "setting": "[1]; 24 h", "result": 0.0110}, {"measurement": "radioactivity, Brain, normal", "setting": "[1]; 24 h", "result": 0.0010}, {"measurement": "radioactivity, Tumor - intracranial", "setting": "[1]; 24 h", "result": 0.1284}, {"measurement": "radioactivity, Blood", "setting": "[1]; 48 h", "result": 0.0060}, {"measurement": "radioactivity, Brain, normal", "setting": "[1]; 48 h", "result": 0.0000}, {"measurement": "radioactivity, Tumor - intracranial", "setting": "[1]; 48 h", "result": 0.0885}, {"measurement": "radioactivity, Blood", "setting": "[1]; 72 h", "result": 0.0040}, {"measurement": "radioactivity, Brain, normal", "setting": "[1]; 72 h", "result": 0.0000}, {"measurement": "radioactivity, Tumor - intracranial", "setting": "[1]; 72 h", "result": 0.0351}, {"measurement": "radioactivity, Brain, normal", "setting": "[1]; 96 h", "result": 0.0000}, {"measurement": "AUC^tumor/blood", "setting": "[1]; PET, microdose iv", "result": 1303}, {"measurement": "radioactivity, Brain-gray", "setting": "[2]; 0.5 h", "result": 1.16, "unit": "SUV"}, {"measurement": "radioactivity, Lung", "setting": "[2]; 0.5 h", "result": 0.56, "unit": "SUV"}, {"measurement": "radioactivity, Muscle", "setting": "[2]; 0.5 h", "result": 0.72, "unit": "SUV"}, {"measurement": "radioactivity, Tumor", "setting": "[2]; 0.5 h", "result": 2.52, "unit": "SUV"}, {"measurement": "radioactivity, Brain-gray", "setting": "[2]; 3 h", "result": 0.41, "unit": "SUV"}, {"measurement": "radioactivity, Lung", "setting": "[2]; 3 h", "result": 0.29, "unit": "SUV"}, {"measurement": "radioactivity, Muscle", "setting": "[2]; 3 h", "result": 0.32, "unit": "SUV"}, {"measurement": "radioactivity, Tumor", "setting": "[2]; 3 h", "result": 2.1, "unit": "SUV"}, {"measurement": "radioactivity, Brain-gray", "setting": "[2]; 24 h", "result": 0.03, "unit": "SUV"}, {"measurement": "radioactivity, Lung", "setting": "[2]; 24 h", "result": 0.07, "unit": "SUV"}, {"measurement": "radioactivity, Muscle", "setting": "[2]; 24 h", "result": 0.09, "unit": "SUV"}, {"measurement": "radioactivity, Tumor", "setting": "[2]; 24 h", "result": 0.79, "unit": "SUV"}, {"measurement": "probe-related toxicity", "setting": "[3]", "result": "No radioiodinated probe-related toxicity was evident"}, {"measurement": "AUC^tumor/blood", "setting": "[4]", "result": 80}, {"measurement": "AUC^tumor/blood", "setting": "[5]", "result": 444}, {"measurement": "AUC^tumor/blood", "setting": "[6]", "result": 143}, {"measurement": "AUC^tumor/blood", "setting": "[7]", "result": 893}, {"measurement": "radioactivity, Blood", "setting": "[8]", "result": 0.0050}, {"measurement": "2nd Component Half-time", "setting": "[9]", "result": "1.87 h and 2.97 h and 2.35 h"}, {"measurement": "2nd Component Half-time", "setting": "[9]; then text value", "result": "1.87 h and 2.97 h and 2.2 h and 2.35 h and 2.35 ± 0.563 h"}, {"measurement": "area under the curve (AUC)", "setting": "[9]; plasma", "result": "0.0225 (%ID g-1)h and 0.0199 (%ID g-1)h and 0.0127 (%ID g-1)h and 0.0184 (%ID g-1)h"}, {"measurement": "biological half-life in normal brain tissue", "setting": "[10]", "result": "less than 0.5 hours"}]}]}
